Here are results for three compounds from ChEMBL document CHEMBL5696442, “Discovery of type II inhibitors of TGFβ-activated kinase 1 (TAK1) and mitogen-activated protein kinase kinase kinase kinase 2 (MAP4K2)” (J Med Chem, 2015).

The source made the active and inactive calls. The calls are words filed in the database; no cut-off is given here.

For test [1], the target named is T1, Receptor-interacting serine/threonine-protein kinase 4 (Homo sapiens) (UniProt P57078).
T1 sequence (whole entry): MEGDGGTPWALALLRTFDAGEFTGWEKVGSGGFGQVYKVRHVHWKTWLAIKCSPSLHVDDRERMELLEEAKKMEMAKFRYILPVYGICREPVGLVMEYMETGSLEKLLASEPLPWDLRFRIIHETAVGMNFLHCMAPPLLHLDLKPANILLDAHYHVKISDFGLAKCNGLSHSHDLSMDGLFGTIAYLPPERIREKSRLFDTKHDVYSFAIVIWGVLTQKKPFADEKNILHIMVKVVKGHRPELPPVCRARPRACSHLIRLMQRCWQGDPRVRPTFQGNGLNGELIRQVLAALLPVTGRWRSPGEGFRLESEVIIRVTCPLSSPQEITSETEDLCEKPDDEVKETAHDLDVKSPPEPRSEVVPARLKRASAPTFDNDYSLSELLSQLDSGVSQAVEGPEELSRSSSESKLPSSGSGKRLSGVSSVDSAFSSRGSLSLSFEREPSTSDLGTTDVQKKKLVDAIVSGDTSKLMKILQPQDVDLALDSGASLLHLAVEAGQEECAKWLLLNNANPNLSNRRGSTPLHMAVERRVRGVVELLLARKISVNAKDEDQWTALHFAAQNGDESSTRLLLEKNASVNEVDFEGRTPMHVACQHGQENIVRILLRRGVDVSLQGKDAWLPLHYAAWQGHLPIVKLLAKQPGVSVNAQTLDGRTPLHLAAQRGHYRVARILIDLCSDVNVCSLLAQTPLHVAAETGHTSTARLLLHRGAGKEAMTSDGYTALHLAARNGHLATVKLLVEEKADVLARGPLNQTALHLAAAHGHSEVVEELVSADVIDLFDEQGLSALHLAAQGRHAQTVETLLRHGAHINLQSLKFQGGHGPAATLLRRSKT
Nature of the test: Inhibition of RIPK4 (unknown origin) at 1 uM by Ambit Kinomescan binding assay relative to control.

For test [2], the target named is Ribosomal protein S6 kinase beta-1 (Homo sapiens) (UniProt P23443). Nature of the test: Inhibition of S6K1 (unknown origin) at 1 uM by Ambit Kinomescan binding assay relative to control.
Sequence of Ribosomal protein S6 kinase beta-1 (Homo sapiens) (P23443 whole entry, looked up): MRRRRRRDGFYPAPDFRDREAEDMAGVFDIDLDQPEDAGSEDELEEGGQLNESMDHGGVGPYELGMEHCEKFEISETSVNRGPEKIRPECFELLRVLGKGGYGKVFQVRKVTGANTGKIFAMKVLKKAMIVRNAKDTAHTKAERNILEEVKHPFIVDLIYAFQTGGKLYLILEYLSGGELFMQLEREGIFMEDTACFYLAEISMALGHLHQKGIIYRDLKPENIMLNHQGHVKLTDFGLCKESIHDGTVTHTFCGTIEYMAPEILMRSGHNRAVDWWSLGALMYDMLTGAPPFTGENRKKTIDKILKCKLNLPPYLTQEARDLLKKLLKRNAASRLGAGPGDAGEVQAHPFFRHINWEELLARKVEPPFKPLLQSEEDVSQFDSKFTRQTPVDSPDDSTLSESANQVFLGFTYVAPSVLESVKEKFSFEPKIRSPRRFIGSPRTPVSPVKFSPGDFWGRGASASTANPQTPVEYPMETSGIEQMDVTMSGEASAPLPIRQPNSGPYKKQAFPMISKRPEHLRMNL
Test [3] addresses Phosphatidylinositol 4-kinase beta (Homo sapiens) (UniProt Q9UBF8). Put plainly: Inhibition of PI4KB ATP labeling site harbouring VPHTQAVVLNSKDKAPYLIYVEVLECENFDTTSVPAR in human A-375 cells at 5 uM by KiNativ Profiling analysis relative to control. The format is cell-based.
Test [4] deals with Serine/threonine-protein kinase 10 (Homo sapiens) (UniProt O94804). Nature of the test: Inhibition of LOK (unknown origin) at 1 uM by Ambit Kinomescan binding assay relative to control; values are per cent of control.
Sequence of Serine/threonine-protein kinase 10 (Homo sapiens) (O94804 whole entry, looked up): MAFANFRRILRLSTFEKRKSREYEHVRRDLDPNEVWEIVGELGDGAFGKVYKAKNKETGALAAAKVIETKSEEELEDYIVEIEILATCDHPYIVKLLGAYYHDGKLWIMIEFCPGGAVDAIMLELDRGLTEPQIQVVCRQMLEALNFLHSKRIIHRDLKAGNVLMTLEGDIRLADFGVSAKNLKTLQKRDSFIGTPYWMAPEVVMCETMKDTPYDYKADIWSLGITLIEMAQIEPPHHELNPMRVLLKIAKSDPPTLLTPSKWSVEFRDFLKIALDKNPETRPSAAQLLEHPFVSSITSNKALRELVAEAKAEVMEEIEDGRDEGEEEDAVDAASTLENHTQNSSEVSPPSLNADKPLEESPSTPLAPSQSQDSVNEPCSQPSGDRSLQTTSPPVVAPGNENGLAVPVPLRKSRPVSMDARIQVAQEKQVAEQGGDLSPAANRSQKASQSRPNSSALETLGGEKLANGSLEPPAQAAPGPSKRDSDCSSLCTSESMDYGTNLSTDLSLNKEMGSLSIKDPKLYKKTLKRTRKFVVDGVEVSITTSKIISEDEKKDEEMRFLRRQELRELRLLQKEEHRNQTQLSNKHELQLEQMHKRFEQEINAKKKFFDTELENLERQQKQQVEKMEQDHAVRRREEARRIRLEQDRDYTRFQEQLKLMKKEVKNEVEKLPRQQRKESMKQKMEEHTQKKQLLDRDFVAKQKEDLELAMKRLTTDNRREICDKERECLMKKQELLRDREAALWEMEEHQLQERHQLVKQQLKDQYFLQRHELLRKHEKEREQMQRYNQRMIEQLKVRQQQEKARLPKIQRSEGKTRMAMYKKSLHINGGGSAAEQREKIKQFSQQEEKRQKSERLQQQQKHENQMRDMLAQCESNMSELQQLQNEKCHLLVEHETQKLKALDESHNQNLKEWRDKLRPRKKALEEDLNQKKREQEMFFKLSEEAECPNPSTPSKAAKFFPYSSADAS
The target in test [5] is Dual specificity protein kinase CLK1 (Homo sapiens) (UniProt P49759). Nature of the test: Inhibition of CLK1 (unknown origin) at 10 uM by Ambit Kinomescan binding assay.
Sequence of Dual specificity protein kinase CLK1 (Homo sapiens) (P49759 whole entry, looked up): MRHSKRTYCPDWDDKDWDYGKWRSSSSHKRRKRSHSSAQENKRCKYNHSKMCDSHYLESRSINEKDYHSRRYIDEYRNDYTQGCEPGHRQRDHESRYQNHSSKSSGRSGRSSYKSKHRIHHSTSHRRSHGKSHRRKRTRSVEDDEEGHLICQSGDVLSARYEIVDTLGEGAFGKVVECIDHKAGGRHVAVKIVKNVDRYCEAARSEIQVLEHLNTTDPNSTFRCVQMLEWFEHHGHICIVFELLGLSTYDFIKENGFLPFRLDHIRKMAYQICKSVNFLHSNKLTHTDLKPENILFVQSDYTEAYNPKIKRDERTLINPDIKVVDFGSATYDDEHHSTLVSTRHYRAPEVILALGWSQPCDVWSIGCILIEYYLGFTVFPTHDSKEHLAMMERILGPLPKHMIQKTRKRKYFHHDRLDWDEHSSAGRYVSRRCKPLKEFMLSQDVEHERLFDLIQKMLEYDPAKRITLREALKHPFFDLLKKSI
In test [6] the target is Activated CDC42 kinase 1 (Homo sapiens) (UniProt Q07912). Nature of the test: Inhibition of TNK2 (unknown origin) at 10 uM by Ambit Kinomescan binding assay.
Test [7] concerns the target Cyclin-dependent kinase 1 (Homo sapiens) (UniProt P06493). Nature of the test: Inhibition of CDC2 K2 labeling site harbouring DLKPQNLLIDDKGTIK in human Huh-7 cells at 10 uM by KiNativ Profiling analysis relative to control. Format: cell-based.
In test [8] the target is Cyclin-dependent kinase 5 (Homo sapiens) (UniProt Q00535). Put plainly: Inhibition of CDK5 K2 labeling site harbouring DLKPQNLLINR in human Huh-7 cells at 10 uM by KiNativ Profiling analysis relative to control. Format: cell-based.
Sequence of Cyclin-dependent kinase 5 (Homo sapiens) (Q00535 whole entry, looked up): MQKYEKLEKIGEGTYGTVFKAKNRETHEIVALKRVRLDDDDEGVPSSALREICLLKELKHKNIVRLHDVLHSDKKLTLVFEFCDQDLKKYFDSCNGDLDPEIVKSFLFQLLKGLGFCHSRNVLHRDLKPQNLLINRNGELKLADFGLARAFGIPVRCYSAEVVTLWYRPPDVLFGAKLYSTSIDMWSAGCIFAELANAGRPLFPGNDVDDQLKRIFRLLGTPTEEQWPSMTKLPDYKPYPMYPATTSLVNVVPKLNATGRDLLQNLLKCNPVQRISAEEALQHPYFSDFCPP
Test [9] concerns the target RPS6KA1/RPS6KA2/RPS6KA3 (Homo sapiens) (UniProt P51812+Q15349+Q15418). Put plainly: Inhibition of RSK1/2/3 Domain 1 K2 labeling site harbouring DLKPENILLDEEGHIK in human Huh-7 cells at 1 uM by KiNativ Profiling analysis relative to control. Format: cell-based.
In test [10] the target is T2, Serine/threonine-protein kinase TBK1 (Homo sapiens) (UniProt Q9UHD2).
T2 sequence (whole entry): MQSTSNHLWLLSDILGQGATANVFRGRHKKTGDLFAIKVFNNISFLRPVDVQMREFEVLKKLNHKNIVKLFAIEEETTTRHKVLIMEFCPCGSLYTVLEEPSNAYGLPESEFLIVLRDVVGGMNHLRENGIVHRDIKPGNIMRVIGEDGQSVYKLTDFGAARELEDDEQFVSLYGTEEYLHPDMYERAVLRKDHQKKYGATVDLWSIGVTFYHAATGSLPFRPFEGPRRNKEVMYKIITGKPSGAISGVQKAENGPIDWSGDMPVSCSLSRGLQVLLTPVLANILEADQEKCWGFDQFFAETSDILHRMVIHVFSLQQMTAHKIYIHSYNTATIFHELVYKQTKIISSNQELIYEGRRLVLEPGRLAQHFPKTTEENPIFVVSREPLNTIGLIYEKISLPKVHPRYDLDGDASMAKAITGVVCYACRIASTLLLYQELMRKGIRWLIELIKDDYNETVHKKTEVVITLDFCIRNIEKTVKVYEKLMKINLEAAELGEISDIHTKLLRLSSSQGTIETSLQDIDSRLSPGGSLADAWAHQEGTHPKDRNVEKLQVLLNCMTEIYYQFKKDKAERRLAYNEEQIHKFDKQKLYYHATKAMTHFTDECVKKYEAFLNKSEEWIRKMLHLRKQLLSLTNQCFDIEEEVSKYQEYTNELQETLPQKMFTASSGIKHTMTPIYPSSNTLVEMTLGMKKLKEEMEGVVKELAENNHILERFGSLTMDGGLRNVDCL
Put plainly: Inhibition of TBK1 K1 labeling site in human Huh-7 cells at 1 uM by KiNativ Profiling analysis relative to control. Format: cell-based.

Test [11] concerns the target Peripheral plasma membrane protein CASK (Homo sapiens) (UniProt O14936). Nature of the test: Inhibition of CASK Lys1 labeling site in human A-375 cells at 0.5 uM by KiNativ Profiling analysis relative to control.
Test [12] concerns the target Mitogen-activated protein kinase 14 (Homo sapiens, UniProt Q16539). Nature of the test: Inhibition of p38alpha (unknown origin) at 10 uM by Ambit Kinomescan binding assay relative to control; values are per cent of control.
Test [13] concerns the target Serine/threonine-protein kinase MARK2 (Homo sapiens) (UniProt Q7KZI7). Nature of the test: Inhibition of MARK2 Lys2 labeling site harbouring FIVHRDLKAENLLLDADMNIK in human Huh-7 cell lysate at 1 uM by KiNativ Profiling analysis relative to control. The format is subcellular.
The target in test [14] is Cyclin-dependent kinase 2 (Homo sapiens) (UniProt P24941). Put plainly: Inhibition of CDK2 Lys2 labeling site harbouring VLHRDLKPQNLLINTEGAIK in human Huh-7 cells at 1 uM by KiNativ Profiling analysis relative to control. Format: cell-based.

Sequence of Phosphatidylinositol 4-kinase beta (Homo sapiens) (Q9UBF8 2-816 limits assumed): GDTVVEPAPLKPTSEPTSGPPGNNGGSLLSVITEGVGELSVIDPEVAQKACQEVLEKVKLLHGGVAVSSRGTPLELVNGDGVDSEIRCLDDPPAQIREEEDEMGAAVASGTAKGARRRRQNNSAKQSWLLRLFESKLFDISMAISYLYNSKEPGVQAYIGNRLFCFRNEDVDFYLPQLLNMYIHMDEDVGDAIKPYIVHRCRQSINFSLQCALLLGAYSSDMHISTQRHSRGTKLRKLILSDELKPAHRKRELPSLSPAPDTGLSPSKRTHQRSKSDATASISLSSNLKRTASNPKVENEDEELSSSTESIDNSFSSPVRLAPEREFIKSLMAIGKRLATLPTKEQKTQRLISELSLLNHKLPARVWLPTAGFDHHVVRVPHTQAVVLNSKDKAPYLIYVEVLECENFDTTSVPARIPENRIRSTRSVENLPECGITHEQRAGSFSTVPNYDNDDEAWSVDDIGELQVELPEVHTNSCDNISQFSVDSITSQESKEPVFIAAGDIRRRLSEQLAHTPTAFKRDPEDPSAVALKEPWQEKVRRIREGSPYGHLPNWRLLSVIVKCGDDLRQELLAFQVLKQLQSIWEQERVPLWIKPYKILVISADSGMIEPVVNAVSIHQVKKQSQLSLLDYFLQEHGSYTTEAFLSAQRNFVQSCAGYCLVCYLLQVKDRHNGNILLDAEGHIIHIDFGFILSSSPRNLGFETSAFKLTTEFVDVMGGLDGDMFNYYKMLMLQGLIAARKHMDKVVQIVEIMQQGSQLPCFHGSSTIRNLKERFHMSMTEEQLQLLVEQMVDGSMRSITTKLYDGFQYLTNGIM
Sequence of Peripheral plasma membrane protein CASK (Homo sapiens) (O14936 whole entry, looked up): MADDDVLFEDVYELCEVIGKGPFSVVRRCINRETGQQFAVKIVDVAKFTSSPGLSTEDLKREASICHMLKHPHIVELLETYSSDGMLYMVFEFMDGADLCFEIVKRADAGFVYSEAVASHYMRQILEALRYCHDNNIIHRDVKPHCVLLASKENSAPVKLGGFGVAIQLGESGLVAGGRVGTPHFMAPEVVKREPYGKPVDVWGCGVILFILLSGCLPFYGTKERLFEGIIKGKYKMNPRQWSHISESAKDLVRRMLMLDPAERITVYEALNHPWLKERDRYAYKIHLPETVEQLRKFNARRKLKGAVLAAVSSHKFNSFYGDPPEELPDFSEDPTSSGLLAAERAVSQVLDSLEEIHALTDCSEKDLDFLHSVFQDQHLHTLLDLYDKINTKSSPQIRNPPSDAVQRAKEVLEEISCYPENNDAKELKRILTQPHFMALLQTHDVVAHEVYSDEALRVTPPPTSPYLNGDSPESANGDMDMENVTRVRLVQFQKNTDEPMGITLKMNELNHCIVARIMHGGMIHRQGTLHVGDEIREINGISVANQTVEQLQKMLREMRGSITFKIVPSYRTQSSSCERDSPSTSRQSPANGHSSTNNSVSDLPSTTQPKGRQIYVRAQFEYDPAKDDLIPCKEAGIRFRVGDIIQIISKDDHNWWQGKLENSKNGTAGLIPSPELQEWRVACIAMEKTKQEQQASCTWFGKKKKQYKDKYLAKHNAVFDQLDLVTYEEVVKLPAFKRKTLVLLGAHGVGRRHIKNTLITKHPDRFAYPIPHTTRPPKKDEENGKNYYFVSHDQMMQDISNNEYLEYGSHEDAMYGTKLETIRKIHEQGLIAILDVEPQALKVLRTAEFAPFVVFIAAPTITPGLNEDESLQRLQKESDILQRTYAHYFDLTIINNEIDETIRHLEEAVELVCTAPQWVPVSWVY
Sequence of Serine/threonine-protein kinase MARK2 (Homo sapiens) (Q7KZI7 whole entry): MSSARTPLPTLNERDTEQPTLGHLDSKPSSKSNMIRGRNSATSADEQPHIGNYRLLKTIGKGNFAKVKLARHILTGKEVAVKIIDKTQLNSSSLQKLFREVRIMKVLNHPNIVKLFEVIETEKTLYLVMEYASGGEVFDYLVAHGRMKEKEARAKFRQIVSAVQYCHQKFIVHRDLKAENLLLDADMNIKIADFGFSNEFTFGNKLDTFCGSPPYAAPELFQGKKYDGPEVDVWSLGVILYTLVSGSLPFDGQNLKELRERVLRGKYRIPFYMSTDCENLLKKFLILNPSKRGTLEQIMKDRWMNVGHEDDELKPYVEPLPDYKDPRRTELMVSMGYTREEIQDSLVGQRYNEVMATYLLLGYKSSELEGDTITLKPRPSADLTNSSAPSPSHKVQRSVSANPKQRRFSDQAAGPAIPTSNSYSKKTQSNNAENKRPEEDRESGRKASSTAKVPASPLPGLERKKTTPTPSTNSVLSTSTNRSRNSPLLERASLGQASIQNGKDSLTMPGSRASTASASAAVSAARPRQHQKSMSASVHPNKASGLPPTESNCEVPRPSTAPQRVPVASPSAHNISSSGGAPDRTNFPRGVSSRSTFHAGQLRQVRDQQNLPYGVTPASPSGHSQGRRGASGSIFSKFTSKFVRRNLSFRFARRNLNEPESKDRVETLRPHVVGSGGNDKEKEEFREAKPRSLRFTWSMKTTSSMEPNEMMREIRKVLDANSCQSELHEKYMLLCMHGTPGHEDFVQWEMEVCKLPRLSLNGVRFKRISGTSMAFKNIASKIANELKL

As for `CCN1CCN(Cc2ccc(NC(=O)c3ccc(C)c(/C=C/c4cnc5[nH]ccc5c4OC)c3)cc2C(F)(F)F)CC1`, the inhibition (usually the change of the read-out against control, counted positive when it falls) in [1] came out at 100%; in test [2] it was 46%; in [3], 14.1%. Also, the percent of control in test [4] came out at 0%.

For `CCN1CCN(Cc2ccc(NC(=O)c3ccc(C)c(Oc4ccnc5[nH]ccc45)c3)cc2C(F)(F)F)CC1`, the inhibition result in test [5] and in test [6] was “inactive” each time. The inhibition in test [7] was -1.7%; in [8], -6.3%; in test [9] it was 5%; in [10] it was -9.5%; in test [11] it was 5.8%. For the same compound, the percent of control in test [12] stood at 0%.

With `CNc1cc(Oc2cc(C(=O)Nc3cc(N4CCN(C)CC4)cc(C(F)(F)F)c3)ccc2C)ncn1`, the inhibition in test [13] came out at 6%; in test [14], 29.3%.
